Article PMC4863944, “Inhibition of Oncogenic Transcription Factor REL by the Natural Product Derivative Calafianin Monomer 101 Induces Proliferation Arrest and Apoptosis in Human B-Lymphoma Cell Lines” (Molecules, 2015)

Columns and labels:
[1] = target: T1, p65 (RelA) (Homo sapiens, UniProt Q04206); assay: EMSA of extracts from CM101-treated transfected […] cells; C38S mutant less inhibited; western blot of covalently modified high molecular weight forms; assay type: cell-based
T1 construct: FLAG-tagged human p65 expressed in 293 cells
T1 sequence (Q04206 whole entry): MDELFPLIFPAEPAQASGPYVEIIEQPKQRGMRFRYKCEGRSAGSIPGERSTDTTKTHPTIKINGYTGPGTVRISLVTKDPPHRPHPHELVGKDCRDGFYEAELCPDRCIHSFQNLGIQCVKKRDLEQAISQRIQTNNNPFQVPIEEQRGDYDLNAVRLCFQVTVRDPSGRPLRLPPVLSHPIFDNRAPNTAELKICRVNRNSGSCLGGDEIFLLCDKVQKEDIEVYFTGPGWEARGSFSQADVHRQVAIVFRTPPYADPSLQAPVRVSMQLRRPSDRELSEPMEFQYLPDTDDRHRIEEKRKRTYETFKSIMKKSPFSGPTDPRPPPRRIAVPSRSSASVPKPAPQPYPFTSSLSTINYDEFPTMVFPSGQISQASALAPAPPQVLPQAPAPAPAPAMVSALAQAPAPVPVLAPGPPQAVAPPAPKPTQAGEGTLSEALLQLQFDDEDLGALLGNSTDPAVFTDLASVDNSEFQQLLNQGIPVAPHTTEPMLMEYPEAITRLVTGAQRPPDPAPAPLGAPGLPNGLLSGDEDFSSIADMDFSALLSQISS

[2] = target: T2, REL (human c-Rel) (Homo sapiens, UniProt Q04864); assay: EMSA of extracts from CM101-treated transfected […] cells; C27S mutant less inhibited; western blot of covalently modified high molecular weight forms; assay type: cell-based
T2 construct: FLAG-tagged human REL expressed in 293 cells
T2 sequence (Q04864 2-619): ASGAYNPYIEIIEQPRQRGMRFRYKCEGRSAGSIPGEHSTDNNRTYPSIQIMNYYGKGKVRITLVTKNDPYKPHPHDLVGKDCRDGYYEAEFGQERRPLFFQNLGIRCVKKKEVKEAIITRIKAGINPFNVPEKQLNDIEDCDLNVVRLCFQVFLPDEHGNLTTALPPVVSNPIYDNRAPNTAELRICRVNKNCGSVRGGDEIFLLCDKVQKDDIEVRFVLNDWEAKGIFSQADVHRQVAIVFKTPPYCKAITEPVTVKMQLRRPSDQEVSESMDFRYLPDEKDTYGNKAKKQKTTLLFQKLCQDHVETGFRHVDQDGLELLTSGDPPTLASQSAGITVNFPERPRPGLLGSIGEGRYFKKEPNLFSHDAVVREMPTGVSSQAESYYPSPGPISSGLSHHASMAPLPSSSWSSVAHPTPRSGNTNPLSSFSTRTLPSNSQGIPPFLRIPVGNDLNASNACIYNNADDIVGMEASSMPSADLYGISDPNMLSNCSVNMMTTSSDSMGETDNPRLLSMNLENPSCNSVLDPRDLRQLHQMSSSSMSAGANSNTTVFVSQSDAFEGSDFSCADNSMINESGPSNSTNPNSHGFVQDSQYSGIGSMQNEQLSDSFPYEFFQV

SMILES: CCOC(=O)C1=NO[C@@]2(C=C(Br)C(=O)[C@H]3O[C@H]32)C1 (mixture of isomers) [CM101]
- IC50 [1]: ~10 µM
- IC50 [2]: ~10 µM
